# Source: publication PMC3265452 (PLoS Neglected Tropical Diseases, 2012)
# Where a name gives a salt, the structure may show the parent alone.
# Molecular target: AaDOP2 (Aedes aegypti, UniProt H6D5H2)
# Assay: AaDOP2 antagonist screen of the LOPAC1280 library (HEK-CRELuc-Aadop2 cells, luminescence)
# Format: cell-based
# Settings: not given
# Chain of AaDOP2 (H6D5H2 1-476): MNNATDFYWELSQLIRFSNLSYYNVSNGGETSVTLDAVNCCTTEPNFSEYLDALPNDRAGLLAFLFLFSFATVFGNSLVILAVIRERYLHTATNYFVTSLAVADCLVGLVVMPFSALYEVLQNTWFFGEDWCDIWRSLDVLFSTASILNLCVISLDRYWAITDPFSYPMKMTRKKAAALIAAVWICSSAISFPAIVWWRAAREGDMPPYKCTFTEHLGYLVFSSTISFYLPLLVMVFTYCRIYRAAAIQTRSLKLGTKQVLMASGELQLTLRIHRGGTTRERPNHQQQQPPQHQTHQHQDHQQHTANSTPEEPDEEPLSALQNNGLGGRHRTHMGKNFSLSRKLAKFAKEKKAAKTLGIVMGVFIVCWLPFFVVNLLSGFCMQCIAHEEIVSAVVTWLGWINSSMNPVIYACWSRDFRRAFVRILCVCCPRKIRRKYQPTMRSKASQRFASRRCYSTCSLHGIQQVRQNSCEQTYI
row,Molecule,"Compound effect (percent receptor signaling in presence of test compound, relative lux units relative to the SCH23390 control)"
1,"NC(N)=Nc1nc(CSCCC(N)=NS(N)(=O)=O)cs1 [Compound 530, Famotidine]",115
2,"NC(=O)CI [Compound 633, Iodoacetamide]",84
3,"COc1ccc2c(c[n+](C)c3c4cc5c(cc4ccc23)OCO5)c1OC [Compound 241, Chelerythrine chloride]",112
4,"Cl.NCCc1ccc(S(=O)(=O)F)cc1 [Compound 94, 4-(2-Aminoethyl)benzenesulfonyl fluoride hydrochloride]",105
5,"CCCCCCCCCCCCCCCCOCC(COCC(F)(F)F)OP(=O)(O)OC (centres unmarked) [Compound 760, MJ33]",77
6,"Br.NC1CCc2cc(O)c(O)cc2C1 (centres unmarked) [Compound 434, 6,7-ADTN hydrobromide]",118
7,"Cc1ccc(C(=O)Nc2ccc(S(=O)(=O)O)c3cc(S(=O)(=O)O)cc(S(=O)(=O)O)c23)cc1NC(=O)c1cccc(NC(=O)Nc2cccc(C(=O)Nc3cc(C(=O)Nc4ccc(S(=O)(=O)O)c5cc(S(=O)(=O)O)cc(S(=O)(=O)O)c45)ccc3C)c2)c1 [Compound 1135, Suramin hexasodium]",112
8,"CC(C)NCC(O)COc1cccc2[nH]ccc12 (centres unmarked) [Compound 920, Pindolol]",96
9,"CN1Cc2c(N)cccc2C(c2ccccc2)C1 (centres unmarked) [Compound 840, Nomifensine maleate]",42
10,Phenylbenzene-omega-phosphono-alpha-amino acid [Compound 1021],95
11,"CCCC(=O)NCCc1c2n(c3ccc(OC)cc13)Cc1ccccc1-2 [Compound 647, IIK7]",96
12,"Seglitide [Compound 1079, reference compound]",102
13,"COc1cc(C=C(C#N)C#N)cc(O)c1O [Compound 1189, Tyrphostin AG 34]",74
14,"NC1CCN(O)C1=O (racemic) [Compound 110, (±)-HA-966]",107
15,"[H]/N=C(/NC)NCCC[C@H](N)C(=O)O [Compound 795, NG-Monomethyl-L-arginine acetate]",94
16,"COc1ccc(CN(CCN(C)C)c2ccccn2)cc1 [Compound 953, Pyrilamine maleate]",59

row,Molecule,"Compound effect (percent receptor signaling in presence of test compound, relative lux units relative to the SCH23390 control)"
1,"COc1ccc2c(c1OC)C(=O)O[C@@H]2[C@H]1c2c(cc3c(c2OC)OCO3)CCN1C.Cl [Compound 876, Noscapine hydrchloride]",78
2,"N[C@@H](Cc1ccc(O)c(O)c1)C(=O)O [Compound 430, L-3,4-Dihydroxyphenylalanine]",91
3,"Clc1cnc(Oc2ccc(Oc3ncc(Cl)cc3Cl)cc2)c(Cl)c1 [Compound 1150, TCPOBOP]",91
4,Picrotoxin [Compound 924],98
5,"NC(=O)c1cc(N2CC2)c([N+](=O)[O-])cc1[N+](=O)[O-] [Compound 236, CB 1954]",81
6,"CN1[C@@H]2CC[C@H]1C[C@@H](OC(c1ccccc1)c1ccccc1N)C2 (some centres unmarked) [Compound 125, Aminobenztropine]",30
7,"CC[N+](CC)(CC)CC [Compound 1159, Tetraethylammonium chloride]",108
8,"c1ccc2c(c1)CCCC2C1=NCCN1 (centres unmarked) [Compound 1170, Tetrahydrozoline hydrochloride]",102
9,"C=CCn1c(=O)c2c(nc(-c3ccc(S(=O)(=O)O)cc3)n2C)n(C)c1=O [Compound 129, 1-Allyl-3,7-dimethyl-8-p-sulfophenylxanthine]",100
10,"CCCCNC(=O)NS(=O)(=O)c1ccc(C)cc1 [Compound 1148, Tolbutamide]",112
11,"CO/N=C(\C(=O)N[C@@H]1C(=O)N2C(C(=O)O)=C(CSc3nc(=O)c(=O)[nH]n3C)CS[C@H]12)c1csc(N)n1 [Compound 275, Ceftriaxone sodium]",97
12,"O=C(O)CCc1nc(-c2ccccc2)c(-c2ccccc2)o1 [Compound 911, Oxaprozin]",106
13,"COc1cc2c(cc1O)CC[C@@H]1[C@@H]2CC[C@]2(C)[C@@H](O)CC[C@@H]12 [Compound 786, 2-methoxyestradiol]",99
14,"OC[C@H]1NC[C@@H](O)[C@@H]1O [Compound 365, 1,4-Dideoxy-1,4-imino-D-arabinitol]",103
15,"CCCOC(=O)c1c(-c2ccccc2)nc(CC)c(C(=O)SCC)c1CCC [Compound 743, MRS 1523]",101

# Same assay, conditions: 10 µM compound, 300 nM dopamine, 2 hr; hit = compound effect <20
row,"Compound effect (percent receptor signaling in presence of test compound, relative lux units relative to the SCH23390 control) [%]",Molecule
1,88,"CC1=C(/C=C/C(C)=C/C=C/C(C)=C/C(=O)Nc2ccc(O)cc2)C(C)(C)CCC1 [Compound 599, Retinoic acid p-hydroxyanilide]"
2,79,"COc1ccccc1N1CCN(CC(O)COc2cccc3ccccc23)CC1.Cl.Cl (centres unmarked) [Compound 887, Naftopidil dihydrochloride]"
3,97,"O=C([O-])CCC(NC(=O)c1ccccc1C(=O)[O-])C(=O)[O-].[Na+].[Na+].[Na+] [Compound 1022, Phthalamoyl-L-glutamic acid trisodium]"
4,105,"COc1ccc2cc([C@H](C)C(=O)[O-])ccc2c1.[Na+] [Compound 736, (-)-Naproxen sodium]"
5,89,"CN(C)CCCCSC(=N)N.Cl.Cl [Compound 1134, SKF 91488 dihydrochloride]"
6,113,"Cl.NC[C@@H]1O[C@H](C23CC4CC(CC(C4)C2)C3)Cc2c1ccc(O)c2O [Compound 149, A-77636 hydrochloride]"

row,Molecule,"Compound effect (percent receptor signaling in presence of test compound, relative lux units relative to the SCH23390 control) [%]"
1,"CS(=O)(=O)O.Cn1cc(C(F)(F)F)nc1-c1ccc(OCC(O)CNCCOc2ccc(O)c(C(N)=O)c2)cc1 (centres unmarked) [Compound 349, CGP 20712A methanesulfonate]",92
